Laboratory results published in patent US20230085307A1, “PYRIDAZINONE COMPOUND AND HERBICIDE” (NISSAN CHEMICAL CORPORATION, priority 2019, published 2023).

Legend:
green foxtail [1] = experiment: Test Example 4: herbicidal effect by soil treatment (Table 19, symbol G); type: in vivo, green foxtail (Setaria viridis); settings: amount of applied herbicide 320 g/ha
Summary of the method: (§1)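 In this soil treatment, the formulated compound reached the seeds only through the soil: seeds were buried about 1.5 cm deep in sterilized diluvial soil, then the diluted emulsion was sprayed over the surface. After three weeks at 25° C. to 30° C. in a greenhouse, effects were graded on criteria from an earlier test.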

southern crabgrass [2] = experiment: Test Example 5: herbicidal effect by foliage application, plastic box (Table 20, symbol F); type: in vivo, southern crabgrass (Digitaria ciliaris); settings: 320 g/ha, evaluated three weeks after application
Summary of the method: (§2)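 Plants were sown into sterilized diluvial soil under about 1.5 cm cover and kept in a greenhouse at 25° C. to 30° C. Fourteen days on, foliage received an even spray of the diluted emulsion. Herbicidal or crop effect was judged three weeks afterwards.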

blackgrass [3] = experiment: Test Example 4: herbicidal effect by soil treatment (Table 19, symbol J); type: in vivo, blackgrass (Alopecurus myosuroides); settings: amount of applied herbicide 320 g/ha
Summary of the method: as §1

wild oat [4] = experiment: Test Example 5: herbicidal effect by foliage application, plastic box (Table 20, symbol I); type: in vivo, wild oat (Avena fatua); settings: 320 g/ha, evaluated three weeks after application
Summary of the method: as §2

lambsquarters [5] = experiment: Test Example 5: herbicidal effect by foliage application, plastic box (Table 20, symbol O); type: in vivo, lambsquarters (Chenopodium album); settings: 320 g/ha, evaluated three weeks after application
Summary of the method: as §2

windgrass [6] = experiment: Test Example 5: herbicidal effect by foliage application, plastic box (Table 20, symbol L); type: in vivo, windgrass (Apera spica-venti); settings: foliage application, 320 g/ha, evaluated three weeks after application
Summary of the method: as §2

rice flat sedge = experiment: Test Example 3: herbicidal effect by foliage application, Wagner pot (Table 18, symbol E); type: in vivo, rice flat sedge (Cyperus iria)
Summary of the method: (§3)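 Plants were sown in alluvial soil held under 0.1–0.5 cm standing water and grown 14 days in a greenhouse at 25–30 °C. An emulsifiable formulation, water-diluted to the set dose, was then sprayed onto the foliage, and effects were scored three weeks later using previously defined criteria.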

barnyard grass [7] = experiment: Test Example 4: herbicidal effect by soil treatment (Table 19, symbol H); type: in vivo, barnyard grass (Echinochloa crus-galli); settings: amount of applied herbicide 320 g/ha
Summary of the method: as §1

lambsquarters [8] = experiment: Test Example 4: herbicidal effect by soil treatment (Table 19, symbol O); type: in vivo, lambsquarters (Chenopodium album); settings: amount of applied herbicide 320 g/ha
Summary of the method: as §1

persian speedwell [9] = experiment: Test Example 4: herbicidal effect by soil treatment (Table 19, symbol R); type: in vivo, Persian speedwell (Veronica persica); settings: amount of applied herbicide 320 g/ha
Summary of the method: as §1

Chinese sprangletop = experiment: Test Example 3: herbicidal effect by foliage application, Wagner pot (Table 18, symbol D); type: in vivo, chinese sprangletop (Leptochloa chinensis)
Summary of the method: as §3

chickweed [10] = experiment: Test Example 5: herbicidal effect by foliage application, plastic box (Table 20, symbol P); type: in vivo, common chickweed (Stellaria media); settings: 320 g/ha, evaluated three weeks after application
Summary of the method: as §2

green foxtail [11] = experiment: Test Example 5: herbicidal effect by foliage application, plastic box (Table 20, symbol G); type: in vivo, green foxtail (Setaria viridis); settings: 320 g/ha, evaluated three weeks after application
Summary of the method: as §2

velvetleaf [12] = experiment: Test Example 4: herbicidal effect by soil treatment (Table 19, symbol M); type: in vivo, velvetleaf (Abutilon theophrasti); settings: amount of applied herbicide 320 g/ha
Summary of the method: as §1

wild oat [13] = experiment: Test Example 4: herbicidal effect by soil treatment (Table 19, symbol I); type: in vivo, wild oat (Avena fatua); settings: amount of applied herbicide 320 g/ha
Summary of the method: as §1

barnyard grass [14] = experiment: Test Example 3: herbicidal effect by foliage application, Wagner pot (Table 18, symbol H); type: in vivo, barnyard grass (Echinochloa crus-galli)
Summary of the method: as §3

Italian ryegrass [15] = experiment: Test Example 5: herbicidal effect by foliage application, plastic box (Table 20, symbol K); type: in vivo, Italian ryegrass (Lolium multiflorum); settings: 320 g/ha, evaluated three weeks after application
Summary of the method: as §2

chickweed [16] = experiment: Test Example 4: herbicidal effect by soil treatment (Table 19, symbol P); type: in vivo, common chickweed (Stellaria media); settings: amount of applied herbicide 320 g/ha
Summary of the method: as §1

barnyard grass [17] = experiment: Test Example 5: herbicidal effect by foliage application, plastic box (Table 20, symbol H); type: in vivo, barnyard grass (Echinochloa crus-galli); settings: 320 g/ha, evaluated three weeks after application
Summary of the method: as §2

velvetleaf [18] = experiment: Test Example 5: herbicidal effect by foliage application, plastic box (Table 20, symbol M); type: in vivo, velvetleaf (Abutilon theophrasti); settings: 320 g/ha, evaluated three weeks after application
Summary of the method: as §2

persian speedwell [19] = experiment: Test Example 5: herbicidal effect by foliage application, plastic box (Table 20, symbol R); type: in vivo, Persian speedwell (Veronica persica); settings: 320 g/ha, evaluated three weeks after application
Summary of the method: as §2

southern crabgrass [20] = experiment: Test Example 4: herbicidal effect by soil treatment (Table 19, symbol F); type: in vivo, southern crabgrass (Digitaria ciliaris); settings: amount of applied herbicide 320 g/ha
Summary of the method: as §1

windgrass [21] = experiment: Test Example 4: herbicidal effect by soil treatment (Table 19, symbol L); type: in vivo, windgrass (Apera spica-venti); settings: amount of applied herbicide 320 g/ha
Summary of the method: as §1

blackgrass [22] = experiment: Test Example 5: herbicidal effect by foliage application, plastic box (Table 20, symbol J); type: in vivo, blackgrass (Alopecurus myosuroides); settings: 320 g/ha, evaluated three weeks after application
Summary of the method: as §2

redroot pigweed [23] = experiment: Test Example 5: herbicidal effect by foliage application, plastic box (Table 20, symbol N); type: in vivo, redroot pigweed (Amaranthus retroflexus); settings: 320 g/ha, evaluated three weeks after application
Summary of the method: as §2

Italian ryegrass [24] = experiment: Test Example 4: herbicidal effect by soil treatment (Table 19, symbol K); type: in vivo, Italian ryegrass (Lolium multiflorum); settings: amount of applied herbicide 320 g/ha
Summary of the method: as §1

redroot pigweed [25] = experiment: Test Example 4: herbicidal effect by soil treatment (Table 19, symbol N); type: in vivo, redroot pigweed (Amaranthus retroflexus); settings: amount of applied herbicide 320 g/ha
Summary of the method: as §1

[26] = amount of applied herbicide 320 g/ha
[27] = foliage application after 14-day growth

## CCCC(=O)Oc1c(C)nn(C)c(=O)c1-c1c(-c2ccc(C#N)cc2)sc2ccc(C)cc12 [2-147]
Green foxtail [1]
  G: green foxtail, herbicidal effect rating: 0 (Herbicidal rate of 5% or less (almost no effect))
Southern crabgrass [2]; foliage application
  herbicidal effect on F: southern crabgrass (criteria 0-5): 0 (Herbicidal rate of 5% or less (almost no effect))
Blackgrass [3]
  J: blackgrass, herbicidal effect rating: 0 (Herbicidal rate of 5% or less (almost no effect))
Wild oat [4]; foliage application
  herbicidal effect on I: wild oat (criteria 0-5): 0 (Herbicidal rate of 5% or less (almost no effect))
Lambsquarters [5]; foliage application
  herbicidal effect on O: lambsquarters (criteria 0-5): 3 (Herbicidal rate of 40% or more and less than 70%)
Windgrass [6]
  herbicidal effect on L: windgrass (criteria 0-5): 0 (Herbicidal rate of 5% or less (almost no effect))
Rice flat sedge; [26]
  herbicidal effect on E: rice flat sedge: 5 (Herbicidal rate of 90% or more (almost completely withered))
Barnyard grass [7]
  H: barnyard grass, herbicidal effect rating: 0 (Herbicidal rate of 5% or less (almost no effect))
Lambsquarters [8]
  O: lambsquarters, herbicidal effect rating: 0 (Herbicidal rate of 5% or less (almost no effect))
Persian speedwell [9]
  R: persian speedwell, herbicidal effect rating: 5 (Herbicidal rate of 90% or more (almost completely withered))
Chinese sprangletop; [26]
  herbicidal effect on D: Chinese sprangletop: 0 (Herbicidal rate of 5% or less (almost no effect))
Chickweed [10]; foliage application
  herbicidal effect on P: chickweed (criteria 0-5): 5 (Herbicidal rate of 90% or more (almost completely withered))
Green foxtail [11]; foliage application
  herbicidal effect on G: green foxtail (criteria 0-5): 0 (Herbicidal rate of 5% or less (almost no effect))
Velvetleaf [12]
  M: velvetleaf, herbicidal effect rating: 0 (Herbicidal rate of 5% or less (almost no effect))
Wild oat [13]
  I: wild oat, herbicidal effect rating: 0 (Herbicidal rate of 5% or less (almost no effect))
Barnyard grass [14]; [26]
  herbicidal effect on H: barnyard grass: 1 (Herbicidal rate of 5% or more and less than 20%)
Italian ryegrass [15]; foliage application
  herbicidal effect on K: Italian ryegrass (criteria 0-5): 0 (Herbicidal rate of 5% or less (almost no effect))
Chickweed [16]
  P: chickweed, herbicidal effect rating: 4 (Herbicidal rate of 70% or more and less than 90%)
Barnyard grass [17]; foliage application
  herbicidal effect on H: barnyard grass (criteria 0-5): 0 (Herbicidal rate of 5% or less (almost no effect))
Velvetleaf [18]; foliage application
  herbicidal effect on M: velvetleaf (criteria 0-5): 4 (Herbicidal rate of 70% or more and less than 90%)
Persian speedwell [19]; foliage application
  herbicidal effect on R: persian speedwell (criteria 0-5): 5 (Herbicidal rate of 90% or more (almost completely withered))
Southern crabgrass [20]
  F: southern crabgrass, herbicidal effect rating: 0 (Herbicidal rate of 5% or less (almost no effect))
Windgrass [21]
  L: windgrass, herbicidal effect rating: 0 (Herbicidal rate of 5% or less (almost no effect))
Blackgrass [22]; foliage application
  herbicidal effect on J: blackgrass (criteria 0-5): 0 (Herbicidal rate of 5% or less (almost no effect))
Redroot pigweed [23]; foliage application
  herbicidal effect on N: redroot pigweed (criteria 0-5): 5 (Herbicidal rate of 90% or more (almost completely withered))
Italian ryegrass [24]
  K: Italian ryegrass, herbicidal effect rating: 0 (Herbicidal rate of 5% or less (almost no effect))

## Cc1nn(C)c(=O)c(-c2c(-c3ccc(F)cc3)sc3c(F)cccc23)c1O [4-001]
Green foxtail [1]
  Herbicidal effect by soil treatment, G: green foxtail: 0 (Herbicidal rate of 5% or less (almost no effect))
Southern crabgrass [2]; [27]
  herbicidal effect on F: southern crabgrass (evaluation grade 0-5): 0 (Herbicidal rate of 5% or less (almost no effect))
Blackgrass [3]
  Herbicidal effect by soil treatment, J: blackgrass: 0 (Herbicidal rate of 5% or less (almost no effect))
Wild oat [4]; [27]
  herbicidal effect on I: wild oat (evaluation grade 0-5): 0 (Herbicidal rate of 5% or less (almost no effect))
Lambsquarters [5]; [27]
  herbicidal effect on O: lambsquarters (evaluation grade 0-5): 2 (Herbicidal rate of 20% or more and less than 40%)
Redroot pigweed [25]
  Herbicidal effect by soil treatment, N: redroot pigweed: 2 (Herbicidal rate of 20% or more and less than 40%)
Rice flat sedge; 320 g/ha
  herbicidal effect on rice flat sedge (E): 5 (Herbicidal rate of 90% or more (almost completely withered))
Barnyard grass [7]
  Herbicidal effect by soil treatment, H: barnyard grass: 0 (Herbicidal rate of 5% or less (almost no effect))
Lambsquarters [8]
  Herbicidal effect by soil treatment, O: lambsquarters: 5 (Herbicidal rate of 90% or more (almost completely withered))
Persian speedwell [9]
  Herbicidal effect by soil treatment, R: persian speedwell: 4 (Herbicidal rate of 70% or more and less than 90%)
Chinese sprangletop; 320 g/ha
  herbicidal effect on Chinese sprangletop (D): 3 (Herbicidal rate of 40% or more and less than 70%)
Chickweed [10]; [27]
  herbicidal effect on P: chickweed (evaluation grade 0-5): 5 (Herbicidal rate of 90% or more (almost completely withered))
Green foxtail [11]; [27]
  herbicidal effect on G: green foxtail (evaluation grade 0-5): 4 (Herbicidal rate of 70% or more and less than 90%)
Velvetleaf [12]
  Herbicidal effect by soil treatment, M: velvetleaf: 3 (Herbicidal rate of 40% or more and less than 70%)
Wild oat [13]
  Herbicidal effect by soil treatment, I: wild oat: 0 (Herbicidal rate of 5% or less (almost no effect))
Barnyard grass [14]; 320 g/ha
  herbicidal effect on barnyard grass (H): 4 (Herbicidal rate of 70% or more and less than 90%)
Italian ryegrass [15]; [27]
  herbicidal effect on K: Italian ryegrass (evaluation grade 0-5): 2 (Herbicidal rate of 20% or more and less than 40%)
Chickweed [16]
  Herbicidal effect by soil treatment, P: chickweed: 4 (Herbicidal rate of 70% or more and less than 90%)
Barnyard grass [17]; [27]
  herbicidal effect on H: barnyard grass (evaluation grade 0-5): 2 (Herbicidal rate of 20% or more and less than 40%)
Velvetleaf [18]; [27]
  herbicidal effect on M: velvetleaf (evaluation grade 0-5): 5 (Herbicidal rate of 90% or more (almost completely withered))
Persian speedwell [19]; [27]
  herbicidal effect on R: persian speedwell (evaluation grade 0-5): 5 (Herbicidal rate of 90% or more (almost completely withered))
Southern crabgrass [20]
  Herbicidal effect by soil treatment, F: southern crabgrass: 0 (Herbicidal rate of 5% or less (almost no effect))
Windgrass [21]
  Herbicidal effect by soil treatment, L: windgrass: 0 (Herbicidal rate of 5% or less (almost no effect))
Blackgrass [22]; [27]
  herbicidal effect on J: blackgrass (evaluation grade 0-5): 2 (Herbicidal rate of 20% or more and less than 40%)
Redroot pigweed [23]; [27]
  herbicidal effect on N: redroot pigweed (evaluation grade 0-5): 3 (Herbicidal rate of 40% or more and less than 70%)
Italian ryegrass [24]
  Herbicidal effect by soil treatment, K: Italian ryegrass: 0 (Herbicidal rate of 5% or less (almost no effect))
